{"source": "patent US11839641B2", "about": "“Methods and compositions for treatment of lysosomal storage disorders” (JME Group Associates Inc., priority 2020, dated 2023)", "key": {"[1]": {"biological_target": "T1, Barley GAA (high-isoelectric-point (pI) α-glucosidase) (Hordeum vulgare, UniProt Q43763)", "T1 sequence (Q43763 24-877)": "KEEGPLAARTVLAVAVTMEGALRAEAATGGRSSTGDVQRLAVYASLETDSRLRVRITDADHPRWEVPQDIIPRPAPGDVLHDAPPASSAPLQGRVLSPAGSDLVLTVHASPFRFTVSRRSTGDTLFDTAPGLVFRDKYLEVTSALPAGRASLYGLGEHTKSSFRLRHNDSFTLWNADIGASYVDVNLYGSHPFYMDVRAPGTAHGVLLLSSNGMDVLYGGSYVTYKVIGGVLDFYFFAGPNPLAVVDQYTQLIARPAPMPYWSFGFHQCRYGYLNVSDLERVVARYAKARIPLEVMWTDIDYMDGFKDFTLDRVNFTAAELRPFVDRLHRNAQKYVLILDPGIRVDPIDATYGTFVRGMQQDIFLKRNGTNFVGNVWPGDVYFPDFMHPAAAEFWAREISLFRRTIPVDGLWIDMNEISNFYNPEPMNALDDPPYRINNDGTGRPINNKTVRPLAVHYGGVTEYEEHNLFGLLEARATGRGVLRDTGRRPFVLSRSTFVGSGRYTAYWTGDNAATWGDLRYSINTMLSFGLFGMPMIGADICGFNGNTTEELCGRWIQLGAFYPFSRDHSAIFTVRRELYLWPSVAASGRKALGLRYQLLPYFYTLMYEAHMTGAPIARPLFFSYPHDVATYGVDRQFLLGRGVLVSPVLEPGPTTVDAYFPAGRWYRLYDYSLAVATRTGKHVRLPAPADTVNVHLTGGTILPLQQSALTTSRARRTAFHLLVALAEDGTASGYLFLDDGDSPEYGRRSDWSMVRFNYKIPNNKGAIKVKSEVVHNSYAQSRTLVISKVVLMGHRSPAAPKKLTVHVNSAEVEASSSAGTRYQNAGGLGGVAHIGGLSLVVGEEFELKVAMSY", "settings": "cited from earlier work"}, "human white blood cells": {"test_system": "human white blood cells", "experiment": "Uptake of GGB crude lysate by human white blood cells", "assay_type": "cell-based", "settings": "18 hrs at 37° C.", "procedure": "(§1) Uptake of a crude lysate of 7-8 day GGB by white blood cells (“WBC”) from humans and GAA KO mice was tested. Each treatment was performed±5 mM mannose-6 phosphate. Mannose-6 phosphate treatment blocks uptake by the M-6-P receptor (Martiniuk et al., “Further Studies of The Structure of Human Placental Acid Alpha-Glucosidase,” Arch Biochem Biophys 231:454-460 (1984); Martiniuk et al., “Production of a Functional Human Acid Maltase in Tobacco Seeds: Biochemical Analysis, Uptake by Human GSDII Cells, and in vivo Studies in GAA Knockout Mice,” Appl Biochem Biotechnol 171:916-926 (2013), each of which is hereby incorporated by reference in their entirety). Human placental GAA (hGAA) was used as a positive control. Anti-coagulate-EDTA was added at 1.5 to 2.0 mg/ml of whole blood. 0.15 ml of human and mouse KO blood was used and a 14×RBC lysing solution (NH4Cl (ammonium chloride)—8.02 g; NaHCO3 (sodium bicarbonate)—0.84 g; EDTA (disodium)—0.37 g to 100 ml with water) was added in a 1.5 ml microfuge tube, inverted for 10 minutes at RT until the liquid was clear red followed by spinning for 1 minute in a microfuge. The supernatant was decanted, cells were washed with phosphate buffered saline (PBS) and re-suspend in 2.4 ml complete DMEM-10% FBS (Life Technologies). […]"}, "[2]": {"test_system": "GAA KO mice white blood cells", "experiment": "Uptake of GGB crude lysate by GAA KO mouse white blood cells ± mannose-6-phosphate", "assay_type": "cell-based", "settings": "5 mM mannose-6-phosphate", "procedure": "as §1"}, "GAA KO mice": {"test_system": "GAA KO mice", "settings": "cited from earlier work"}}}
{"compound": "C[C@H]1O[C@H](O[C@H]2[C@H](O)[C@@H](O)[C@@H](O[C@H]3[C@H](O)[C@@H](O)C(O)O[C@@H]3CO)O[C@@H]2CO)[C@H](O)[C@@H](O)[C@@H]1N[C@H]1C=C(CO)[C@@H](O)[C@H](O)[C@H]1O", "note": "(stereo partly drawn) [Acarbose]", "values": [{"measurement": "Ki", "setting": "[1]", "value": 1.5, "unit": "µM"}]}
{"compound": "placental hGAA: Human placental GAA (hGAA) used as a positive control", "values": [{"measurement": "GAA/NAG ratio compared to mock treated cells", "setting": "human white blood cells", "value": "higher ratios of GAA/NAG"}, {"measurement": "uptake with mannose-6-phosphate", "setting": "[2]", "value": "blocked"}]}
{"compound": "rhGAA: recombinant human GAA", "values": [{"measurement": "Glycogen reduction", "setting": "GAA KO mice; 20 mg/kg/wk for 5 mo., skeletal muscle", "value": "< 50", "unit": "%"}, {"measurement": "enzyme uptake by skeletal muscle compared to liver and heart", "setting": "GAA KO mice; 20 mg/kg/wk for 5 mo.", "value": "minimal"}, {"measurement": "glycogen clearance in skeletal muscle", "setting": "GAA KO mice; 100 mg/kg/wk", "value": "~75", "unit": "%"}]}
